Reference: patent publication US7811778B2, “Methods of screening for gastrointestinal cancer” (Vanderbilt University, priority 2006, dated 2010)
Where “and” joins values, the source holds several entries; their conditions need not be identical. Equal values may be shown once. Entries after “also recorded” stand apart in the source; their conditions may differ.

Key:
[1] = test system: emerging SPEM cells; test: Quantitative PCR of transcripts in microdissected cells during emergence of SPEM; assay type: in vivo, gastrin-deficient mice
Experimental: Total RNA isolated from laser-capture microdissected cell collections from the stomachs of normal and DMP-777 1-day-treated and DMP-777 3-day—treated gastrin-deficient mice was analyzed by quantitative PCR assays. Reverse transcription from each total RNA sample was performed using random primers and Quantiscript Reverse transcriptase (Qiagen. Valencia, Calif.), for 30 minutes at 42° C. Quantitative real-time PCR was performed with a 3-step method using the Bio-Rad iCycler iQ real-time PCR detection system (Bio-Rad Laboratories, Hercules, Calif.). Each reaction was carried out in a 50 μL mixture consisting of QuantiTect SYBR Green PCO Master Mix (Qiagen), and 1 μL of template cDNA. The PCR conditions for quantitative real-time PCR were; 95° C. for 10 minutes 45 cycles of 94° C. for 15 seconds, 60° C. for 30 seconds, and 72° C. for 30 seconds. Quantitation of cDNA template in each sample was determined using the comparative threshold cycle (CT) method using GAPDH as a control, as described previously (Nomura S, Baxter S, Yamaguchi T, Leys C, Vartapetian A B, Fox J G, Lee J R, Wang T C, Goldenring J R. Relationship of spasmolytic polypeptide expressing metaplasia (SPEM) to pre-neoplasia in H. felis-infected mice. Gastroenterology 2004; 127:582-594). Statistical comparisons of the mean ΔΔCT between groups were determined using the Mann-Whitney U Test
However, by quantitative PCR assays, TFF2 levels were elevated greater than 7-fold in emerging SPEM from DMP-777 treated animals (FIG. 5).

[2] = test system: chief cells / SPEM cells at the bases of fundic glands; test: Electron microscopy of gastric fundic region; assay type: in vivo; details: gastrin-deficient mice treated for 3 days with DMP-777
Experimental: Fresh specimens from the gastric fundic region of untreated controls and 3-day DMP-777 treated gastrin-deficient mice fixed for 2.5 hour on ice in 2.5% glutaraldehyde, 0.1 M Cacodytate Buffer in PBS. The samples were fixed overnight at 4° C. in 1% osmium tetroxide (OSO4) and 0.1M Cacodylate Buffer. Subsequently, the samples were subjected to an ethanol dehydration series and embedded in Spurrs resin. 50˜100 nm thin sections were cut and collected on 200-mesh, formvar-coated copper grids. After drying overnight, the grids were contrast stained with 2% depleted Uranyl Acetate (UA) and then stained with saturated lead citrate. Samples were examined on a Philips CM12 Electron Microscope.

[3] = test system: parietal cells; details: cited from earlier work
[4] = microdissected cells, DMP-777 1 or 3 days vs untreated chief cells

## CCC[C@@H](NC(=O)N1C(=O)C(CC)(CC)[C@@H]1Oc1ccc(C(=O)N2CCN(C)CC2)cc1)c1ccc2c(c1)OCO2 [DMP-777]
[1]; emerging SPEM from DMP-777 treated animals vs untreated chief cells
  TFF2 levels by quantitative PCR: greater than 7 fold
[1]; [4]
  G1/S associated transcripts MCM3, MCM5, MCM7 and ATF3 by quantitative PCR: up-regulation of G1/associated transcripts was confirmed
  ST3Gal6 transcript by quantitative PCR: down-regulation ST3Gal6 was confirmed
  transcripts for putative soluble mediators HE4 and IL1RN by quantitative PCR: up-regulation of transcripts for putative soluble mediators was also confirmed
[2]
  granule morphology of SPEM cells at the bases of fundic glands (electron microscopy): heterogeneous set of granule morphologies
  morphological evidence of apoptosis (electron microscopy): no morphological evidence of apoptosis
[3]; DMP-777 treated animals
  inflammatory infiltrate: absence of significant inflammatory infiltrate
[3]; gastrin knockout mice
  induction of SPEM in gastrin-deficient (knockout) mice: rapid induction of metaplasia after only one day of DMP-777 treatment; also recorded: develop SPEM after only one dose of DMP-777; also recorded: develop SPEM after only a single dose of DMP-777
  surface cell (foveolar) hyperplasia in response to DMP-777: do not develop surface cell hyperplasia
[3]; gastrin-deficient mice, after only one day of treatment
  cells expressing both intrinsic factor and TFF2 (dual expressing cells): rapid increase in dual expressing cells
[3]; mice or rats, high doses of oral DMP-777 (>200 mg/kg/d), three days of administration
  loss of parietal cells: rapid loss of parietal cells
[3]; mice or rats, oral DMP-777 >200 mg/kg/d
  time of oxyntic atrophy until SPEM develops in the fundus: 7 to 10 days
[3]; mice or rats, prolonged administration of drug for up to a year
  dysplastic lesions: no dysplastic lesions are ever observed
[3]; rodents
  time to loss of acid-secreting parietal cells: within one to three days
[3]; wild type C57BL/6 mice
  days of treatment required for SPEM in wild type C57BL/6 mice: 7 to 10 days and 10 to 14 days
